Data set [1] deals with Gram positive and Gram-negative pathogens. The data set is described as follows: Broth microdilution growth inhibition, summary over all tested pathogens. Type of data set: cell-based. The procedure:
To test the antimicrobial activity of linezolid and linezolid conjugated with 3FG6P (Lzd-3FG6P) against Gram-positive and Gram-negative pathogens, the pathogens Staphylococcus aureus ATCC 25923, Klebsiella pneumoniae ATCC 35657, Acinetobacter baumannii ATCC BAA1605, Escherichia coli ATCC 25922, Enterobacter cloacae ATCC 13047, Enterobacter aerogenes ATCC13048, and Salmonella typhimurium ATCC 14028 were used. The minimal inhibitory concentration (MIC) was determined using broth microdilution following the instructions of Clinical and Laboratory Standards Institute (CLSI) document M07-A9 (Clinical and Laboratory Standards Institute. 2012. M07-A9. Methods for dilution antimicrobial susceptibility tests for bacteria that grow aerobically: approved standard. 9th ed. Clinical and Laboratory Standards Institute, Wayne, PA). Briefly, these bacterial strains were grown in Muller Hinton broth (MHB) until exponential phage (OD600<1.0). The exponentially grown testing bacteria were diluted to an OD600 of 0.01 in MHB and aliquoted in a 96 well plate. […] The plate was incubated at 37° C. and the growth of bacteria was monitored by measuring OD600 using a Cytation 5 plate reader (BioTek).

Data set [2] concerns Salmonella typhimurium ATCC 14028. Briefly: MIC by broth microdilution (CLSI M07-A9). Type of data set: cell-based. The conditions noted are these: Muller Hinton broth, 37° C. Here is the method: (§1) To test the antimicrobial activity of linezolid and linezolid conjugated with 3FG6P (Lzd-3FG6P) against Gram-positive and Gram-negative pathogens, the pathogens Staphylococcus aureus ATCC 25923, Klebsiella pneumoniae ATCC 35657, Acinetobacter baumannii ATCC BAA1605, Escherichia coli ATCC 25922, Enterobacter cloacae ATCC 13047, Enterobacter aerogenes ATCC13048, and Salmonella typhimurium ATCC 14028 were used. The minimal inhibitory concentration (MIC) was determined using broth microdilution following the instructions of Clinical and Laboratory Standards Institute (CLSI) document M07-A9 (Clinical and Laboratory Standards Institute. 2012. M07-A9. Methods for dilution antimicrobial susceptibility tests for bacteria that grow aerobically: approved standard. 9th ed. Clinical and Laboratory Standards Institute, Wayne, PA). Briefly, these bacterial strains were grown in Muller Hinton broth (MHB) until exponential phage (OD600<1.0). The exponentially grown testing bacteria were diluted to an OD600 of 0.01 in MHB and aliquoted in a 96 well plate. Stocks of linezolid (Lzd) and linezolid conjugated with 3FG6P (Lzd-3FG6P) were prepared at 10 mg/ml in DMSO which was diluted by two-fold serial dilutions from 64 μg/ml to 2 μg/ml (final concentration) and added to the 96 well plate. A DMSO control (0 μg/ml in the figures) was included. The plate was incubated at 37° C. and the growth of bacteria was monitored by measuring OD600 using a Cytation 5 plate reader (BioTek).

The test system of data set [3] is Klebsiella pneumoniae ATCC 35657. Briefly: MIC by broth microdilution (CLSI M07-A9). Type of data set: cell-based. The conditions noted are these: Muller Hinton broth, 37° C. The procedure:
as §1
A general note: Dilution methods test growth across graded concentrations, often in twofold steps.

For data set [4], the system named is Staphylococcus aureus ATCC 25923. Briefly: MIC by broth microdilution (CLSI M07-A9). The following applies: Muller Hinton broth, 37° C. Type of data set: cell-based. The procedure:
as §1

The test system of data set [5] is Escherichia coli ATCC 25922. The data set is described as follows: MIC by broth microdilution (CLSI M07-A9). Type of data set: cell-based. The conditions noted are these: Muller Hinton broth, 37° C. The procedure: as §1
Data set [6] concerns Acinetobacter baumannii ATCC BAA1605. Briefly: MIC by broth microdilution (CLSI M07-A9). Type of data set: cell-based. The conditions noted are these: Muller Hinton broth, 37° C. Here is the method:
as §1

The subject of data set [7] is Enterobacter aerogenes ATCC13048. Briefly: MIC by broth microdilution (CLSI M07-A9). Type of data set: cell-based. The conditions noted are these: Muller Hinton broth, 37° C. Here is the method:
as §1

In data set [8] the test system is Enterobacter cloacae ATCC 13047. Briefly: MIC by broth microdilution (CLSI M07-A9). Type of data set: cell-based. The conditions noted are these: Muller Hinton broth, 37° C. The procedure: as §1
For data set [9], the system named is bioluminescent E. coli strain. Briefly: Mouse urinary tract infection with bioluminescent E. coli. Type of data set: in vivo, C57BL/6 mice. The following applies: 80 mg/kg intraperitoneal at 2, 24 and 48 hours; 72 hours after infection. Here is the method: C57BL/6 mice were transurethrally inoculated with bioluminescent E. coli strain and treated with PBS, linezolid (80 mg/kg), and linezolid conjugated with 3FG6P (80 mg/kg) at 2, 24, and 48 hours after inoculation. 72 hours after inoculation, the progress of the infection was monitored using a IVIS Lumina XR small animal imaging system and the bacterial burden in the kidney and bladder was determined by a plate counting method.
To test the in vivo antimicrobial activity of linezolid and linezolid conjugated with 3FG6P, clinical E. coli strains were constructed that constitutively express a bioluminescent light signal using pLuxABCDE plasmid. See Karsi A. Lawrence M L. Broad host range fluorescence and bioluminescence expression vectors for Gram-negative bacteria. Plasmid. 2007; 57(3):286-95. Epub 2007/01/09. doi: 10.1016/j.plasmid.2006.11.002. PubMed PMID: 17207855 for real time monitoring of the progress of infections. Six- to eight-week old female C57BL/6 mice were purchased from Harlan laboratory and were housed and maintained according to the protocol approved by the institutional animal care and use committee at Mississippi State University. Animals (n=6/group) were transurethrally infected with 50 μl of bioluminescent E. coli strain suspended in PBS (2×10^9 CFU/ml). Animals were treated with an intraperitoneal injection of linezolid (80 mg/kg), linezolid conjugated with 3FG6P (80 mg/kg) or PBS control at 2, 24, and 48 hours after infection. The progress of the infection was monitored by measuring the bioluminescent light signal using an IVIS Lumina X R small animal imaging system. After 72 hours infection, animals were humanely euthanized and the bladder and kidney samples were collected, homogenized, and serially diluted, and the serial dilutions were plated on blood agar to determine the bacterial burden. A transurethral inoculation of E. coli established persistent infections in the kidney and bladder in the absence of antibiotic treatment (PBS control group). The mean bacterial counts in the kidney and bladder were log10 6.328±0.132 and log10 6.171+0.155 CFU/g, respectively (FIG. 12).

The conditions of data set [10]: cited from earlier work.
The test system of another data set is Enterobacteriaceae. The following applies: cited from earlier work.
Another data set relates to S. aureus COL strain. The data set is described as follows: Growth in BHI broth with fosfomycin, with or without 4FG6P. Type of data set: cell-based, Staphylococcus aureus. From the text:
(§2) FIGS. 13A to 13D show a comparison of the antimicrobial activity of fosfomycin alone (FIG. 13A) and fosfomycin conjugated with 3FG6P or 4FG6P (FIG. 13B) against a fosfomycin resistant E. coli clinical isolate, and fosfomycin alone (FIG. 13C) and fosfomycin conjugated with 3FG6P or 4FG6P (FIG. 13D) against an S. aureus COL strain. The key in FIG. 13D applies to all graphs of FIGS. 13A-13D.
(§3) To test whether 3FG6P and 4FG6P can potentiate the efficacy of fosfomycin, clinical fosfomycin resistant UTI E. coli isolates harboring the fosA gene and S. aureus COL strain were obtained. Overnight cultures of these bacteria were grown in brain heart infusion (BHI) broth diluted to 0.5 McFarland turbidity and inoculated into fresh BHI broth supplemented with various concentrations of fosfomycin alone or fosfomycin supplemented with 3FG6P for E. coli or 4FG6P for S. aureus (50 μM).

Data set [11] deals with fosfomycin resistant UTI E. coli isolates harboring the fosA gene. Briefly: Growth in BHI broth with fosfomycin, with or without 3FG6P. Type of data set: cell-based, Escherichia coli.
Source text: as §2, §3

The subject of data set [12] is UhpT expression (HptARS system) in S. aureus LAC strain. The data set is described as follows: uhpT promoter-LuxABCDE bioluminescent reporter for UhpT expression. Type of data set: cell-based, Staphylococcus aureus. The following applies: 500 μM in brain heart infusion broth. Here is the method: FIG. 5 illustrates a LuxABCDE reporter system for monitoring expression of the UhpT by measuring bioluminescent light signals and strong and stable induction of UhpT expression by 3FG6P. S. aureus LAC strain harboring the LuxABCDE reporter system was cultured in a brain heart infusion broth supplemented with 500 μM glucose (Glc), glucose-6-phosphate (G6P), and 3-fluoro-glucose-6-phosphate (3FG6P) and the bioluminescent signal was monitored using a Cytation 5.
To test whether 3FG6P can induce expression of the UhpT, we generated a bioluminescent reporter plasmid in which the promoter region of the uhpT was fused to the promoterless LuxABCDE operon (FIG. 5). See Francis K P, Joh D, Bellinger-Kawahara C, Hawkinson M J, Purchio T F, Contag P R. Monitoring bioluminescent Staphylococcus aureus infections in living mice using a novel luxABCDE construct. Infection and immunity. 2000; 68(6):3594-600. Epub 2000/05/19. PubMed PMID: 10816517; PMCID: PMC97648 and Karsi A, Lawrence M L. Broad host range fluorescence and bioluminescence expression vectors for Gram-negative bacteria. Plasmid. 2007; 57(3):286-95. Epub 2007/01/09. doi: 10.1016/j.plasmid.2006.11.002. PubMed PMID: 17207855 for monitoring of the expression of UhpT by measuring bioluminescent light signals.

In data set [13] the test system is methicillin-resistant Staphylococcus aureus (MRSA). The conditions noted are these: cited from earlier work.
A further data set relates to Acinetobacter spp. The following applies: cited from earlier work.
A further data set has as its system Proteus penneri. The following applies: cited from earlier work.
In data set [14] the test system is Staphylococcus epidermidis (MRSE). The conditions noted are these: cited from earlier work.
Data set [15] deals with vancomycin-resistant Enterococcus (VRE)faecalis and faecium. The following applies: cited from earlier work.
Data set [16] has as its system Stenotrophomonas maltophilia. The following applies: cited from earlier work.
Another data set has as its system Neisseria gonorrhea. The following applies: cited from earlier work.
The next data set relates to Escherichia coli. The conditions noted are these: cited from earlier work.
For another data set, the system named is Klebsiella pneumoniae. The conditions noted are these: cited from earlier work.
Another data set has as its system Pseudomonas aeruginosa. The conditions noted are these: cited from earlier work.
[17] abbreviates: BHI supplemented with 50 μM of 4FG6P.

Converted amounts (≈) assume the structure as drawn. “And” between values parts separate entries of the source, which are not always exact repeats. Equal values may be shown once. Read-outs that look alike come from different tables or passages of the source. Bounds are passed on as bounds.

`CC(=O)NC[C@H]1CN(c2ccc(N3CCN(C(=O)CCCOC4OC(COP(=O)(O)O)[C@@H](O)C(F)C4O)CC3)c(F)c2)C(=O)O1` (stereo partly shown) [Linezolid-3FG6P]: the “concentration range inhibiting growth” value in data set [1] (both Gram positive and Gram-negative pathogens) is 2 to 8 µg/mL. In addition, the MIC (usually the lowest concentration found to suppress growth) in data set [2] (Salmonella enterica, read-out: MIC) was 8 µg/mL (≈ 12 µM); in data set [3] (Klebsiella pneumoniae, ATCC35657, read-out: MIC), under 2 µg/mL; in data set [4] (Staphylococcus aureus, ATCC25923, read-out: MIC) it was under 2 µg/mL; in data set [5] (Escherichia coli, ATCC25922, read-out: MIC), 4 µg/mL (≈ 6 µM); in data set [6] (Acinetobacter baumannii, ATCCBAA1605, read-out: MIC), under 2 µg/mL; in [7] (Klebsiella aerogenes, ATCC13048, read-out: MIC), 4 µg/mL (≈ 6 µM). Also, the MIC in data set [8] (Enterobacter cloacae, ATCC13047, read-out: MIC) is under 2 µg/mL. Besides, the “bacterial counts in the bladder” value in data set [9] is given as “nearly completely cleared the infection”. For the same compound, the “bacterial counts in the kidney” value in data set [9] was “completely cleared the infection”.

As to `C[C@@H]1O[C@@H]1P(=O)(O)O` [fosfomycin], in data set [10] (in vivo), the “metabolism in the liver” value was “not metabolized in the liver”. In addition, the oral bioavailability in data set [10] (oral administration) is 30-37%. Also, the “minimum inhibitory concentration (MIC) breakpoint” value in the data set on Enterobacteriaceae is 8 to 32 µg/mL. In addition, the figures for the “fosfomycin concentration at which growth was completely inhibited” value (in the data set with S. aureus COL strain (setting [17]); in data set [11] (BHI supplemented with 50 μM of 3FG6P)) were 32 µg/mL and at most 2 µg/mL, respectively. Besides, the “growth at fosfomycin concentrations lower than 32 μg/ml” value in the data set on S. aureus COL strain (setting [17]) was “significantly delayed”. The “fosfomycin concentration up to which growth was allowed” value with S. aureus COL strain (BHI, fosfomycin alone) is reported as “up to 128 μg/ml”; in data set [11] (BHI, fosfomycin alone) it was “up to 128 μg/ml”.

`O=C[C@H](O)[C@@H](O)[C@H](O)[C@H](O)COP(=O)(O)O` [glucose-6-phosphate]: the “duration of induced bioluminescent light signals” value in [12] is 8 h.

As to “(S)—N-[[3-[3-fluoro-4-(N-1-piperazinyl)phenyl]-2-oxo-5-oxazolidinyl]methyl]acetamide [Linezolid]”, the MIC90 (commonly the lowest concentration that inhibits either 90% of growth or 90% of the strains tested, depending on the study) in data set [13] was 1 to 4 µg/mL and 2 µg/mL; in [14] it was 1 to 4 µg/mL and 1 µg/mL; in data set [15], 1 to 4 µg/mL and 2 µg/mL; in the data set on Neisseria gonorrhea, 16 µg/mL. The antimicrobial activity result (in the data set with Acinetobacter spp; in the data set with Proteus penneri; in data set [16]; in the data set on Escherichia coli; in the data set on Klebsiella pneumoniae; with Pseudomonas aeruginosa) was “not active” each time. Further, the “concentration failing to inhibit growth” value in [1] (Gram-negative pathogens) was 64 µg/mL. Moreover, the MIC was over 64 µg/mL in data set [2]; over 64 µg/mL in data set [3]; under 2 µg/mL in data set [4]; “less than 2 μg/ml” in [4] (listed as linezolid); over 64 µg/mL in [5]; over 64 µg/mL in data set [6]. Moreover, the MIC in [7] and in [8] was over 64 µg/mL each time. In data set [9], the “bacterial counts in the bladder” value is reported as “did not reduce bacterial counts”. The “bacterial counts in the kidney” value in [9] is “did not reduce bacterial counts”.

The record behind these values is patent US20230372492A1, “DRUGS CONJUGATED WITH HEXOSE PHOSPHATE AND METHODS OF MAKING AND USING SAME” (MISSISSIPPI STATE UNIVERSITY, priority 2020, published 2023).
